Assay [1] deals with MDM2-p53 interaction (in vitro translated MDM2, biotinylated IP3 peptide) (Homo sapiens, UniProt Q00987). As to the kind of experiment: MDM2-p53 interaction 96-well plate binding assay (ELISA). (In an ELISA, binding on a coated surface is turned into a signal by an enzyme label.)
The next assay relates to SJSA-1. The experiment in a line: Protocol B: SJSA-1 CellTiter-Glo cell viability. As to conditions: Homo sapiens, SJSA-1, 72 h, read-out: SJSA1 IC50 (μM) (Protocol B), SJSA-1, Protocol B (CellTiter-Glo), 72 hrs. A general note: In ATP-based viability assays light output follows the ATP content of the culture.
Where [2] appears, read: @ 0.30 μM, read-out: MDM2 % @ concentration.
[3] abbreviates: @ 0.10 μM, read-out: MDM2 % @ concentration.
Setting [4] is: @ 0.0010 μM, read-out: MDM2 % @ concentration.

Data on 28 compounds can be found in patent US10526311B2 (ASTEX THERAPEUTICS LIMITED, priority 2015, dated 2020).

Where a name gives a salt, the structure may show the parent alone. Read-outs that look alike come from different tables or passages of the source.

Chain of MDM2-p53 interaction (in vitro translated MDM2, biotinylated IP3 peptide) (Q00987 whole entry): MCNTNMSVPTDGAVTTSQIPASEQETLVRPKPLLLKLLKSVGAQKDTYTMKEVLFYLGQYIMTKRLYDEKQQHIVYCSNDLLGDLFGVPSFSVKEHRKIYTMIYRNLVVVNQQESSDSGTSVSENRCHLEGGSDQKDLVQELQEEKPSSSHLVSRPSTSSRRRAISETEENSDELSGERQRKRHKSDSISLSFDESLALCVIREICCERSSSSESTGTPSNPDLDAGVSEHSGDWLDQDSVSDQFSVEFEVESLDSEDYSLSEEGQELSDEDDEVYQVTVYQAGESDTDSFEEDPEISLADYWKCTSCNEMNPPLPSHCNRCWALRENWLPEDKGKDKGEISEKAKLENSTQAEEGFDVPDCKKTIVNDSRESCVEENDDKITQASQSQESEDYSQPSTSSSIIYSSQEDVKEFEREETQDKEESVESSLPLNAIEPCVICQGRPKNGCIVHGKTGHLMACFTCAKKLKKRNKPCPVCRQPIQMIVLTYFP

As to `CO[C@]1(c2ccc(Cl)cc2)c2ccc(C(C)(O)CN3CCNC3=O)cc2C(=O)N1Cc1ccc(Cl)cn1` (single isomer, unassigned) [Example 157], in assay [1] (setting [2]), the inhibition at 0.3 µM is 39%.

Turning to `CO[C@]1(c2ccc(Cl)cc2)c2ccc(C(C)(O)CN3CCNC3=O)cc2C(=O)N1Cc1ccc(Cl)cn1` (single isomer, unassigned) [Example 158], the inhibition at 0.1 µM in assay [1] (setting [3]) worked out at 57%.

Turning to `CO[C@]1(c2ccc(Cl)cc2)c2c(F)cc(C(C)(O)C3CCN(C(=O)CO)CC3)cc2C(=O)N1Cc1ccc(Cl)cn1` (single isomer, unassigned) [Example 296], the inhibition at 0.001 µM in assay [1] (setting [4]) was determined as 62%.

With `CO[C@]1(c2ccc(Cl)cc2)c2ccc(C(C)(O)CN3CCOCC3=O)cc2C(=O)N1Cc1ccc(Cl)cn1` (single isomer, unassigned) [Example 327], the inhibition at 0.3 µM in assay [1] (setting [2]) worked out at 42%.

Turning to `CO[C@]1(c2ccc(Cl)cc2)c2ccc(C(C)(O)CN3CC(=O)NC3=O)cc2C(=O)N1Cc1ccc(Cl)cn1` (single isomer, unassigned) [Example 330], the “MDM2 % @ concentration” value in assay [1] (@ 0.30 μM) is reported as 36% @ 0.30.

Turning to `Cn1cc(C(C)(O)c2cc(F)c3c(c2)C(=O)N(Cc2ncc(F)cc2F)[C@@]3(OCC2(O)CC2)c2ccc(Cl)cc2)cn1` (single isomer, unassigned) [Example 350], the inhibition at 0.03 µM in assay [1] (@ 0.030 μM, read-out: MDM2 % @ concentration) came to 54%.

Regarding `Cn1cc(C(C)(O)c2cc(F)c3c(c2)C(=O)N(Cc2ncc(F)cc2F)[C@@]3(OCC2(O)CC2)c2ccc(Cl)cc2)cn1` (single isomer, unassigned) [Example 351], the inhibition at 0.1 µM in assay [1] (setting [3]) came to 25%.

Take `CCC(O)(c1cc(F)c2c(c1)C(=O)N(Cc1ccc(C#N)cn1)[C@@]2(O[C@H]1CCOC1)c1ccc(Cl)cc1)c1cnn(C)c1` (single isomer, unassigned) [Example 358]: in assay [1] (setting [4]), the inhibition at 0.001 µM is 74%.

Regarding `CCC(O)(c1cc(F)c2c(c1)C(=O)N(Cc1ccc(C#N)cn1)[C@@]2(O[C@H]1CCOC1)c1ccc(Cl)cc1)c1cnn(C)c1` (single isomer, unassigned) [Example 359], the inhibition at 0.1 µM in assay [1] (setting [3]) was found to be 50%.

Turning to `CCC(O)(c1cc(F)c2c(c1)C(=O)N(Cc1ccc(C#N)cn1)[C@@]2(OCCOC)c1ccc(Cl)cc1)c1cn(C)cn1` (single isomer, unassigned) [Example 429], the inhibition at 0.1 µM in assay [1] (setting [3]) is 65%.

With `CCC(O)(c1cc(F)c2c(c1)C(=O)N(Cc1ccc(C#N)cn1)[C@@]2(O[C@H]1CCOC1)c1ccc(Cl)cc1)C1(F)CCOCC1` (single isomer, unassigned) [Example 445], in assay [1] (@ 0.0010 μM), the “MDM2 % @ concentration” value was determined as 43% @ 0.0010. Further, in assay [1] (read-out: MDM2 % @ concentration, @ 0.10 μM), the inhibition at 0.1 µM turned out to be 56%.

As to `CO[C@]1(c2ccc(Cl)cc2)c2c(F)cc(C(C)(O)c3cnn(C4CN(C(=O)OC(C)(C)C)C4)c3)cc2C(=O)N1Cc1ccc(Cl)cn1` (single isomer, unassigned) [Example 457], the inhibition at 0.3 µM in assay [1] (setting [2]) was found to be 53%.

On to `CCC(O)(c1cc(F)c2c(c1)C(=O)N(Cc1ncc(C#N)cn1)[C@@]2(OCC1(C#N)CC1)c1ccc(Cl)cc1)c1cn(C)cn1` (single isomer, unassigned) [Example 463], for which, in assay [1] (setting [3]), the inhibition at 0.1 µM amounted to 73%.

Consider `CCCC(O)(c1cc(F)c2c(c1)C(=O)N(Cc1ccc(C#N)cn1)[C@@]2(O[C@H]1CCOC1)c1ccc(Cl)cc1)c1cn(C)cn1` (single isomer, unassigned) [Example 473], for which the inhibition at 0.1 µM in assay [1] (setting [3]) turned out to be 44%.

`CCC(O)(c1cc(F)c2c(c1)C(=O)N(Cc1ncc(Cl)cc1O)[C@@]2(O[C@H]1C[C@@H](O)C1)c1ccc(Cl)cc1)c1cn(C)cn1` (single isomer, unassigned) [Example 488]: the inhibition at 0.1 µM in assay [1] (setting [3]) turned out to be 56%.

For `C[C@@H](c1ccc(Cl)cn1)N1C(=O)c2cc(C(C)(C)O)cc(F)c2[C@]1(OCC1(C(N)=O)CC1)c1ccc(Cl)cc1` [Example 70, 1-({[(1R)-1-(4-chlorophenyl)-2-[(1S)-1-(5-chloropyridin-2-yl)ethyl]-7-fluoro-5-(2-hydroxypropan-2-yl)-3-oxo-2,3-dihydro-1H-isoindol-1-yl]oxy}methyl)cyclopropane-1-carboxamide], in assay [1], the IC50 was found to be 3.2 nM.

In assay [1], `C[C@H](c1ccc(Cl)cn1)N1C(=O)c2cc(C(C)(C)O)cc(F)c2[C@]1(OCC1(C(N)=O)CC1)c1ccc(Cl)cc1` [Example 71, 1-({[(1R)-1-(4-chlorophenyl)-2-[(1R)-1-(5-chloropyridin-2-yl)ethyl]-7-fluoro-5-(2-hydroxypropan-2-yl)-3-oxo-2,3-dihydro-1H-isoindol-1-yl]oxy}methyl)cyclopropane-1-carboxamide] registered an IC50 of 82 nM.

On to `CO[C@]1(c2ccc(Cl)cc2)c2ccc(C(C)(O)C(=O)NCCN(C)C)cc2C(=O)N1Cc1ccc(Cl)cn1` (stereo partly drawn) [Example 149, 2-[(1R)-1-(4-Chlorophenyl)-2-[(5-chloropyridin-2-yl)methyl]-1-methoxy-3-oxo-2,3-dihydro-1H-isoindol-5-yl]-N-[2-(dimethylamino)ethyl]-2-hydroxypropanamide], for which, in assay [1] (@ 1.0 μM, read-out: MDM2 % @ concentration), the inhibition at 1 µM was found to be 53%.

Regarding `CO[C@]1(c2ccc(Cl)cc2)c2ccc(C(C)(O)C(=O)NCCN(C)C)cc2C(=O)N1Cc1ccc(Cl)cn1` (stereo partly drawn) [Example 150, 2-[(1R)-1-(4-Chlorophenyl)-2-[(5-chloropyridin-2-yl)methyl]-1-methoxy-3-oxo-2,3-dihydro-1H-isoindol-5-yl]-N-[2-(dimethylamino)ethyl]-2-hydroxypropanamide], in assay [1] (setting [3]), the inhibition at 0.1 µM turned out to be 49%.

Consider `COc1ccc(CN2C(=O)c3cc(C(C)(O)c4cnn(C)c4)cc(F)c3[C@]2(OCC2(O)CC2)c2ccc(Cl)cc2)nc1` (stereo partly drawn) [Example 228, (3R)-3-(4-chlorophenyl)-4-fluoro-6-[1-hydroxy-1-(1-methyl-1H-pyrazol-4-yl)ethyl]-3-[(1-hydroxycyclopropyl)methoxy]-2-[(5-methoxypyridin-2-yl)methyl]-2,3-dihydro-1H-isoindol-1-one], for which, in assay [1] (@ 0.010 μM, read-out: MDM2 % @ concentration), the inhibition at 0.01 µM is 61%.

Turning to `CC[C@@](O)(c1cc(F)c2c(c1)C(=O)N(Cc1ncc(C#N)cn1)[C@@]2(O[C@H]1C[C@@H](O)C1)c1ccc(Cl)cc1)C1(F)CCOCC1` [Example 505, 2-{[(1R)-1-(4-chlorophenyl)-7-fluoro-5-[(1R)-1-(4-fluorooxan-4-yl)-1-hydroxypropyl]-3-oxo-1-[cis-3-hydroxycyclobutoxy]-2,3-dihydro-1H-isoindol-2-yl]methyl}pyrimidine-5-carbonitrile], the half-inhibitory concentration (IC50) with SJSA-1 turned out to be 0.027 µM.

In the case of `CC[C@](O)(c1cc(F)c2c(c1)C(=O)N(Cc1ncc(C#N)cn1)[C@@]2(O[C@H]1C[C@@H](O)C1)c1ccc(Cl)cc1)C1(F)CCOCC1` [Example 506, 2-{[(1R)-1-(4-chlorophenyl)-7-fluoro-5-[(1S)-1-(4-fluorooxan-4-yl)-1-hydroxypropyl]-3-oxo-1-[cis-3-hydroxycyclobutoxy]-2,3-dihydro-1H-isoindol-2-yl]methyl}pyrimidine-5-carbonitrile], the IC50 with SJSA-1 came to 3.4 µM.

`CC[C@@](O)(c1cc(F)c2c(c1)C(=O)N(Cc1ncc(C#N)cn1)[C@@]2(O[C@H]1CCOC1)c1ccc(Cl)cc1)C1(F)CCOCC1` [Example 507, 2-{[(1R)-1-(4-chlorophenyl)-7-fluoro-5-[(1R)-1-(4-fluorooxan-4-yl)-1-hydroxypropyl]-3-oxo-1-[(3S)-oxolan-3-yloxy]-2,3-dihydro-1H-isoindol-2-yl]methyl}pyrimidine-5-carbonitrile]: the IC50 with SJSA-1 is 0.02 µM.

On to `CCC(O)(c1cc(F)c2c(c1)C(=O)N(Cc1ncc(Cl)cn1)[C@@]2(OC)c1ccc(Cl)cc1)[C@H]1CC[C@H](O)CC1` (stereo partly drawn) [Example 511, (3R)-3-(4-chlorophenyl)-2-[(5-chloropyrimidin-2-yl)methyl]-4-fluoro-6-{1-hydroxy-1-[trans-4-hydroxycyclohexyl]propyl}-3-methoxy-2,3-dihydro-1H-isoindol-1-one], for which the IC50 in the assay with SJSA-1 was 0.018 µM.

Consider `CC[C@@](O)(c1cc(F)c2c(c1)C(=O)N(Cc1ncc(Cl)cc1C(=O)O)[C@@]2(OC)c1ccc(Cl)cc1)C1(F)CCOCC1` [Example 514, 5-chloro-2-{[(1R)-1-(4-chlorophenyl)-7-fluoro-5-[(1R)-1-(4-fluorooxan-4-yl)-1-hydroxypropyl]-1-methoxy-3-oxo-2,3-dihydro-1H-isoindol-2-yl]methyl}pyridine-3-carboxylic acid (tris(hydroxymethyl)aminomethane salt)], for which, in the assay on SJSA-1, the half-maximal inhibitory concentration (IC50) turned out to be 0.64 µM.

On to `CC[C@@](O)(c1cc(F)c2c(c1)C(=O)N(Cc1ncc(Cl)cn1)[C@@]2(O[C@H]1C[C@@H](O)C1)c1ccc(Cl)cc1)C1CCN(C)CC1` [Example 560, (3R)-3-(4-chlorophenyl)-2-[(5-chloropyrimidin-2-yl)methyl]-4-fluoro-6-[(1S)-1-hydroxy-1-(1-methylpiperidin-4-yl)propyl]-3-[cis-3-hydroxycyclobutoxy]-2,3-dihydro-1H-isoindol-1-one], for which the IC50 in the assay with SJSA-1 is 0.13 µM.

In the case of `CC[C@@](O)(c1cc(F)c2c(c1)C(=O)N(Cc1ncc(Cl)cc1O)[C@@]2(O[C@H]1CCOC1)c1ccc(Cl)cc1)C1CCN(C)CC1` [Example 568, 2-[(5-chloro-3-hydroxypyridin-2-yl)methyl]-3-(4-chlorophenyl)-4-fluoro-6-[(1S)-1-hydroxy-1-(1-methylpiperidin-4-yl)propyl]-3-[(3S)-oxolan-3-yloxy]-2,3-dihydro-1H-isoindol-1-one], the IC50 with SJSA-1 was found to be 0.094 µM.

`[2H]C([2H])(O)C([2H])([2H])O[C@]1(c2ccc(Cl)cc2)c2c(F)cc(C(O)(CC)C3(F)CCN(C)CC3)cc2C(=O)N1Cc1ncc(Cl)cn1` (stereo partly drawn) [Example 580, (3R)-3-(4-chlorophenyl)-2-[(5-chloropyrimidin-2-yl)methyl]-4-fluoro-6-[1-(4-fluoro-1-methylpiperidin-4-yl)-1-hydroxypropyl]-3-[2-hydroxy(1,1,2,2-tetradeutero)ethoxy]-2,3-dihydro-1H-isoindol-1-one]: in the assay on SJSA-1, the IC50 stood at 0.014 µM.

In general, IC50 refers to the concentration at which inhibition is half-maximal.
